Experimental data reported in paper PMC10714400, “Antimicrobial Peptide–Peptoid Hybrids with and without Membrane Disruption” (ACS Infectious Diseases, 2023).
Like-named read-outs stand apart in the source and are kept apart here.

Assays:
[1] = tested on: B. cenocepacia; settings: MH pH 7.4, 16–20 h at 37 °C
Experimental: (§1) Antimicrobial activity was assayed for all the peptide–peptoids against P. aeruginosa PAO1, K. pneumoniae NCTC418, E. coli W3110, A. baumannii ATCC 19606, methicillin-resistant S. aureus COL (MRSA), and for selected peptides on P. aeruginosa PA14 and the polymyxin-B-resistant derivatives PA14 4.13, PA14 4.18, PA14 2P4, as well as the clinical isolates ZEM-1A and ZEM9A, K. pneumoniae OXA-48, S. aureus Newman, Enterobacter cloacae, Stenotrophomonas maltophilia, Burkholderia cenocepacia, and Staphylococus epidermidis. To determine the Minimal Inhibitory Concentration (MIC), the Broth Microdilution method was used.[72] A colony of bacteria was picked and grown in LB medium overnight at 37 °C.
(§2) To each well was finally added 4 μL of the diluted bacterial suspension (see above), corresponding to approximately 5 × 10^5 CFU. For each test, two columns of the plate were kept for sterility control (medium only), growth control (medium with bacterial inoculum, no compound). The positive control, Polymyxin B (starting with a concentration of 16 μg/mL) in MH medium with bacterial inocula, was introduced in the two lines of the plate. […] Next, 15 μL of 3-(4,5-dimethylthiazol-2-yl)-2,5-diphenyltetrazolium bromide (MTT)[73] (1 mg/mL in sterilized MilliQ deionized water) were added to each well, and the plates were incubated for 20–30 min at room temperature. The minimal inhibitory concentration (MIC) was defined as the lowest concentration of the compound that inhibits the visible growth of the tested bacteria (yellow) with the unaided eye.

[2] = tested on: S. aureus Newman
Experimental: as §1, §2

[3] = tested on: S. epidermis
Experimental: as §1, §2

[4] = tested on: S. maltophilia
Experimental: as §1, §2

[5] = tested on: P. aeruginosa PA14
Experimental: as §1, §2

[6] = tested on: P. aeruginosa PAO1; experiment: Bacterial count after treatment, before TEM sample preparation; type: cell-based, Pseudomonas aeruginosa; settings: P. aeruginosa PAO1, […] MH pH 8.5, 10x MIC
Experimental: (§3) Just before the samples were further prepared for the microscopy, surviving bacteria were quantified by plating 10-fold dilutions of samples in sterilized normal saline (NaCl 0.9%) on LB agar plates. […] The assay was performed in triplicate. Each bacteria sample was centrifuged at 12,000 rpm for 3 min, and the supernatant was discarded. The samples were then further processed and imaged using our previously described protocol.[64]
8. Transmission electron microscopy (TEM)
Table S4: Bacterial counts, 2 hours after treatment, before TEM sample preparation. Data represents triplicates.
Bacteria count after treatment at 10x MIC and 2 h of incubation at 37 °C
Control (non-treated cells) 1 × 10^8 CFU (100)

[7] = tested on: human red blood cells (hRBC); experiment: Minimum hemolytic concentration (MHC); type: cell-based; settings: hRBC, 10 mM phosphate buffer, 150 mM NaCl, pH 7.4, 25 °C, 4 h
Source text: We also measured minimal hemolysis concentrations (MHC) on human red blood cells by serial 2-fold dilution as an indication of toxicity against eukaryotic cells (Table 1).

[8] = tested on: E. coli W3110
Experimental: as §1
(§4) To each well was finally added 4 μL of the diluted bacterial suspension (see above), corresponding to approximately 5 × 10^5 CFU. For each test, two columns of the plate were kept for sterility control (medium only), growth control (medium with bacterial inoculum, no compound). The positive control, Polymyxin B (starting with a concentration of 16 μg/mL) in MH medium with bacterial inocula, was introduced in the two lines of the plate. The plates were incubated at 37 °C for ca. 18 h under static conditions. Next, 15 μL of 3-(4,5-dimethylthiazol-2-yl)-2,5-diphenyltetrazolium bromide (MTT)[73] (1 mg/mL in sterilized MilliQ deionized water) were added to each well, and the plates were incubated for 20–30 min at room temperature. The minimal inhibitory concentration (MIC) was defined as the lowest concentration of the compound that inhibits the visible growth of the tested bacteria (yellow) with the unaided eye.

[9] = tested on: P. aeruginosa PAO1
Experimental: as §1, §4

[10] = tested on: E. cloacae
Experimental: as §1, §4

[11] = tested on: PA14 4.18 (pmrB)
Experimental: as §1, §4

[12] = tested on: K. pneumoniae NCTC418; settings: Table S2
Experimental: as §1, §4

[13] = tested on: A. baumannii ATCC19606; settings: Table S2
Experimental: as §1, §4

[14] = tested on: ZEM9A (clinical MDR P. aeruginosa isolate)
Experimental: as §1, §4

[15] = tested on: PA14 4.13 (phoQ)
Experimental: as §1, §4

[16] = tested on: ZEM-1A (clinical MDR P. aeruginosa isolate)
Experimental: as §1, §4

[17] = tested on: S. aureus COL (MRSA)
Experimental: as §1, §4

[18] = tested on: K. pneumoniae OXA-48
Experimental: as §1, §4

[19] = tested on: PA14 2P4 (pmrB); settings: Table S3; […] MH at pH 8.5
Experimental: as §1, §4

[20] = tested on: P. aeruginosa PAO1; experiment: Transmission electron microscopy (TEM); type: cell-based, Pseudomonas aeruginosa; settings: P. aeruginosa PAO1, 10 × MIC, […] MH at pH 8.5, 2 h at 37 °C
Experimental: Scale bars are 500 nm and 1 μm. Red arrows: membrane perturbations. Blue arrows: intracellular aggregation. Yellow arrows: empty area within the cell.
as §3

Polymyxin B [PMB, reference compound]
MIC B. cenocepacia [1]: >16 mg/L
MIC S. aureus Newman ([2]; MH pH 7.4, 16–20 h at 37 °C): >16 mg/L
MIC S. aureus Newman ([2]; Table S3, […] MH at pH 8.5): 2 mg/L
MIC S. epidermis ([3]; MH pH 7.4, 16–20 h at 37 °C): >16 mg/L
MIC S. epidermis ([3]; Table S3, […] MH at pH 8.5): 2 mg/L
MIC S. maltophilia ([4]; MH pH 7.4, 16–20 h at 37 °C): 0.5 mg/L
MIC S. maltophilia ([4]; Table S3, […] MH at pH 8.5): 2 mg/L
MIC P. aeruginosa PA14 ([5]; MH pH 7.4, 16–20 h at 37 °C): <0.13 mg/L
MIC P. aeruginosa PA14 ([5]; Table S3, […] MH at pH 8.5, 16-20 hours at 37 °C): 0.25 mg/L
Bacteria count after treatment at 10x MIC and 2 h of incubation at 37 °C (% of control) [6]: 1 % of control
MHC ([7]; Table S2): > 2000 µg/mL
MHC [7]: >2000 µg/mL
Antibacterial activity as a function of NaCl concentration ([8]; E. coli W3110, […] MH at pH 8.5, up to 300 mM NaCl): less affected
MIC E. coli W3110 […] 7.4 ([8]; Table S2, […] MH, pH 7.4): 0.5 mg/L
MIC E. coli W3110 […] 8.5 ([8]; Table S2, […] MH, pH 8.5): 0.25 mg/L
MIC E. coli W3110 Full MH 7.4 ([8]; Table S2, full MH, pH 7.4): 0.25 mg/L
MIC E. coli W3110 Full MH 8.5 ([8]; Table S2, full MH, pH 8.5): < 0.1 mg/L
Antibacterial activity as a function of NaCl concentration ([9]; P. aeruginosa PAO1, […] MH at pH 8.5, up to 300 mM NaCl): less affected
MIC P. aeruginosa PAO1 […] 7.4 ([9]; Table S2, […] MH, pH 7.4): 0.5 mg/L
MIC P. aeruginosa PAO1 […] 8.5 ([9]; Table S2, […] MH, pH 8.5): 0.5 mg/L
MIC P. aeruginosa PAO1 Full MH 7.4 ([9]; Table S2, full MH, pH 7.4): 0.5 mg/L
MIC P. aeruginosa PAO1 Full MH 8.5 ([9]; Table S2, full MH, pH 8.5): 0.25 mg/L
MIC P. aeruginosa PAO1 […] ([9]; diluted MH ([…] MH, pH 8.5) per Table 1 footnote b, 16–20 h at 37 °C): 0.5 mg/L
MIC E. cloacae ([10]; MH pH 7.4, 16–20 h at 37 °C): 0.5 to 1 mg/L
MIC E. cloacae ([10]; Table S3, […] MH at pH 8.5): 1 to 2 mg/L
MIC PA14 4.18 (pmrB) ([11]; MH pH 7.4, 16–20 h at 37 °C): 1 mg/L
MIC P. aeruginosa PA14 4.18 ([11]; Table S3, […] MH at pH 8.5): 0.25 mg/L
MIC K. pneumoniae NCTC418 […] 7.4 ([12]; […] MH, pH 7.4): 0.5 mg/L
MIC K. pneumoniae NCTC418 […] 8.5 ([12]; […] MH, pH 8.5): 0.5 mg/L
MIC K. pneumoniae NCTC418 Full MH 7.4 ([12]; full MH, pH 7.4): 0.25 mg/L
MIC K. pneumoniae NCTC418 Full MH 8.5 ([12]; full MH, pH 8.5): 0.25 mg/L
MIC A. baumannii ATCC19606 […] 7.4 ([13]; […] MH, pH 7.4): 0.5 mg/L
MIC A. baumannii ATCC19606 […] 8.5 ([13]; […] MH, pH 8.5): 0.25 mg/L
MIC A. baumannii ATCC19606 Full MH 7.4 ([13]; full MH, pH 7.4): 0.25 mg/L
MIC A. baumannii ATCC19606 Full MH 8.5 ([13]; full MH, pH 8.5): 0.25 mg/L
MIC ZEM9A ([14]; MH pH 7.4, 16–20 h at 37 °C): 2 mg/L
MIC P. aeruginosa ZEM9A ([14]; Table S3, […] MH at pH 8.5): 1 to 2 mg/L
MIC PA14 4.13 (phoQ) ([15]; MH pH 7.4, 16–20 h at 37 °C): 0.25 mg/L
MIC P. aeruginosa PA14 4.13 ([15]; Table S3, […] MH at pH 8.5): 0.5 mg/L
MIC ZEM-1A ([16]; MH pH 7.4, 16–20 h at 37 °C): <0.13 mg/L
MIC P. aeruginosa ZEM-1A ([16]; Table S3, […] MH at pH 8.5): 1 mg/L
MIC S. aureus COL (MRSA) […] 7.4 ([17]; Table S2, […] MH, pH 7.4): 8 mg/L
MIC S. aureus COL (MRSA) […] 8.5 ([17]; Table S2, […] MH, pH 8.5): 1 mg/L
MIC S. aureus COL (MRSA) Full MH 7.4 ([17]; Table S2, full MH, pH 7.4): > 64 mg/L
MIC S. aureus COL (MRSA) Full MH 8.5 ([17]; Table S2, full MH, pH 8.5): 2 mg/L
MIC S. aureus COL (MRSA) Full ([17]; full MH, pH 7.4, 16–20 h at 37 °C): >32 mg/L
MIC K. pneumoniae OXA-48 ([18]; MH pH 7.4, 16–20 h at 37 °C): 1 to 2 mg/L
MIC K. pneumoniae OXA-48 ([18]; Table S3, […] MH at pH 8.5): 1 to 2 mg/L
MIC P. aeruginosa PA14 2P4 [19]: 1 mg/L
TEM micrographs, changes in treated bacteria [20]: blebbing and a disrupted outer membrane
